This passage reports T/C results from PubChem BioAssay AID276 (DTP/NCI, 2004).

“And” between values parts separate entries of the source, which are not always exact repeats. Equal entries are not always repeated. Inconclusive results and toxic doses are left out.

The test concerns B6C3F1 mice, Lewis lung carcinoma iv, survival T/C. Put plainly: NCI In Vivo Anticancer Drug Screen. Data for tumor model Lewis Lung Carcinoma (intravenous) in B6C3F1 mice. To be noted: endpoint: median survival time, schedule: Q01DX009 (ip), higher = longer survival. Summed up: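 Antitumor activity is assessed in tumor-bearing mice by comparing survival after compound treatment against vehicle-treated controls, reported as a T/C ratio.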

Where [1] appears, read: dose: 25.0 mg/kg/injection, vehicle: saline.
[2] abbreviates: dose: 50.0 mg/kg/injection, vehicle: saline.
Setting [3] is: dose: 100.0 mg/kg/injection, vehicle: saline.
Where [4] appears, read: dose: 25.0 mg/kg/injection, vehicle: saline with Tween-80.
Setting [5] is: dose: 50.0 mg/kg/injection, vehicle: saline with Tween-80.
The mark [6] stands for this setting: dose: 25.0 mg/kg/injection, vehicle: Klucel (hydroxypropylcellulose) (HPC).
Where [7] appears, read: dose: 50.0 mg/kg/injection, vehicle: Klucel (hydroxypropylcellulose) (HPC).
The mark [8] stands for this setting: dose: 12.5 mg/kg/injection, vehicle: Klucel (hydroxypropylcellulose) (HPC).
[9] abbreviates: dose: 200.0 mg/kg/injection, vehicle: Klucel (hydroxypropylcellulose) (HPC).
Where [10] appears, read: dose: 100.0 mg/kg/injection, vehicle: Klucel (hydroxypropylcellulose) (HPC).
The mark [11] stands for this setting: dose: 6.25 mg/kg/injection, vehicle: saline.
[12] abbreviates: dose: 12.5 mg/kg/injection, vehicle: saline.
Where [13] appears, read: dose: 6.25 mg/kg/injection, vehicle: saline with Tween-80.
Setting [14] is: dose: 12.5 mg/kg/injection, vehicle: saline with Tween-80.
Where [15] appears, read: dose: 3.12 mg/kg/injection, vehicle: suspension in saline.
[16] abbreviates: dose: 6.25 mg/kg/injection, vehicle: suspension in saline.
Where [17] appears, read: dose: 3.12 mg/kg/injection, vehicle: saline with Tween-80.
Where [18] appears, read: dose: 0.78 mg/kg/injection, vehicle: saline with Tween-80.
The mark [19] stands for this setting: dose: 1.56 mg/kg/injection, vehicle: saline with Tween-80.

In the case of `N#C[C@H](OC1OC(COC2OC(CO)C(O)C(O)C2O)C(O)C(O)C1O)c1ccccc1` (some centres undefined), the T/C by setting is: under setting [1], 111 % of control; under setting [2], 95 % of control; under setting [3], 95 % of control; (dose: 200.0 mg/kg/injection, vehicle: saline) 92 % of control; (dose: 400.0 mg/kg/injection, vehicle: saline) 97 % of control; (dose: 800.0 mg/kg/injection, vehicle: saline) 101 % of control.

`O=NN(CCCl)C(=O)NC1CCC(CC2CCC(NC(=O)N(CCCl)N=O)CC2)CC1` (centres undefined): the T/C under setting [4] was 190 % of control and the T/C under setting [5] was 165 % of control.

As to `S=c1nc[nH]c2nc[nH]c12`, the T/C is, setting by setting: (dose: 15.0 mg/kg/injection, vehicle: Klucel (hydroxypropylcellulose) (HPC)) 107 % of control; (dose: 30.0 mg/kg/injection, vehicle: Klucel (hydroxypropylcellulose) (HPC)) 116 % of control.

In the case of `CC(C)NC(=O)N(CCCCBr)N=O`, the T/C is, setting by setting: (dose: 12.0 mg/kg/injection, vehicle: Klucel (hydroxypropylcellulose) (HPC)) 114 % of control; under setting [6], 98 % of control; under setting [7], 116 % of control.

For the compound `CC(C)[C@]12O[C@H]1[C@@H]1O[C@]13[C@]1(O[C@H]1C[C@H]1C4=C(C(=O)OC4)[C@@H](O)C[C@@]13C)[C@@H]2O`, the T/C (dose: 25.0 micrograms/kg/injection, vehicle: saline + alcohol) is 98 % of control; the T/C (dose: 50.0 micrograms/kg/injection, vehicle: saline + alcohol) was 110 % of control; the T/C (dose: 100.0 micrograms/kg/injection, vehicle: saline + alcohol) was 102 % of control; the T/C (dose: 200.0 micrograms/kg/injection, vehicle: saline + alcohol) was 88 % of control; the T/C (dose: 400.0 micrograms/kg/injection, vehicle: saline + alcohol) is 107 % of control.

In the case of `CC1=NNC(=O)C1CCO` (centres undefined), the T/C is, setting by setting: (dose: 6.25 mg/kg/injection, vehicle: Klucel (hydroxypropylcellulose) (HPC)) 104 % of control; under setting [8], 96 % of control; under setting [6], 108 % of control; under setting [7], 92 % of control and 99 % of control; under setting [9], 98 % of control and 108 % of control; (dose: 400.0 mg/kg/injection, vehicle: Klucel (hydroxypropylcellulose) (HPC)) 112 % of control.

For the compound `CCCCCn1c(C)cc(/C=C\c2ccc3cc(C)ccc3[n+]2C)c1C`, the T/C reads like this: (dose: 37.5 micrograms/kg/injection, vehicle: Klucel (hydroxypropylcellulose) (HPC)) 107 % of control; (dose: 75.0 micrograms/kg/injection, vehicle: Klucel (hydroxypropylcellulose) (HPC)) 109 % of control; (dose: 150.0 micrograms/kg/injection, vehicle: Klucel (hydroxypropylcellulose) (HPC)) 104 % of control; (dose: 300.0 micrograms/kg/injection, vehicle: Klucel (hydroxypropylcellulose) (HPC)) 97 % of control.

On to `Oc1c(Cl)cc(Cl)cc1C1N2CCCCC2C2c3cccn3-c3ccccc3N21` (centres undefined), for which the T/C is 106 % of control under setting [8]; 101 % of control under setting [6]; 104 % of control under setting [7]; 95 % of control under setting [10]; 102 % of control under setting [9].

`OCCN1CCN(CC/C=C2/c3ccccc3Sc3ccc(Cl)cc32)CC1`: the T/C (dose: 1.56 mg/kg/injection, vehicle: saline) is 99 % of control; the T/C (dose: 3.12 mg/kg/injection, vehicle: saline) is 103 % of control; the T/C under setting [11] was 98 % of control; the T/C under setting [12] was 103 % of control; the T/C under setting [1] was 110 % of control.

For the compound `COc1cc(Cc2nccc3cc(OC)c(OC)cc23)c(C(C)=O)cc1OC`, the T/C reads like this: under setting [8], 98 % of control; under setting [6], 120 % of control; under setting [7], 106 % of control; under setting [10], 101 % of control.

In the case of `CN(C)/N=N/c1nc[nH]c1C(N)=O`, the T/C under setting [8] is 229 % of control.

Take `CNC(=O)n1c(N)nc(-c2ccccc2)c1-c1ccccc1`: the T/C under setting [13] was 102 % of control, the T/C under setting [14] was 103 % of control, the T/C under setting [4] is 103 % of control and the T/C under setting [5] was 102 % of control.

On to `c1cc(-c2cc3ccc(C4=NCCN4)cc3[nH]2)ccc1C1=NCCN1`, for which the T/C is, setting by setting: under setting [15], 100 % of control; under setting [16], 120 % of control; (dose: 12.5 mg/kg/injection, vehicle: suspension in saline) 115 % of control; (dose: 25.0 mg/kg/injection, vehicle: suspension in saline) 111 % of control.

For `Cc1ccc2c(ccc(/C=C/c3ccc(O)c4ncccc34)[n+]2C)c1`, the T/C runs as follows: under setting [12], 100 % of control; under setting [1], 86 % of control.

`O=C(CCCN1CCC(C(O)c2ccc(F)cc2)CC1)c1ccc(F)cc1` (centres undefined): the T/C by setting is: under setting [17], 102 % of control; under setting [13], 101 % of control; under setting [14], 105 % of control.

Turning to `CS(=O)(=O)CS(=O)(=O)OCCCl`, the T/C under setting [12] was 107 % of control, the T/C under setting [1] is 120 % of control, the T/C under setting [2] was 284 % of control and the T/C under setting [3] was 239 % of control.

Consider `C=C1N(C)c2ccccc2C1(C)C`, for which the T/C is 107 % of control under setting [17]; 102 % of control under setting [13]; 109 % of control under setting [14]; 98 % of control under setting [4]; 110 % of control under setting [5].

Turning to `C[C@@H]1C[C@@H]([C@H](O)CC2CC(=O)NC(=O)C2)C(=O)[C@@H](C)C1`, the T/C by setting is: under setting [11], 100 % of control; under setting [12], 105 % of control; under setting [1], 102 % of control.

`c1cc2n(n1)CCN2`: the T/C was 107 % of control under setting [1], 97 % of control under setting [2] and 97 % of control under setting [3].

With `CC[PH+](CC)CC[S-].CC[PH+](CC)CC[S-].[Au+].[Au+]`, the T/C is, setting by setting: (dose: 2.5 mg/kg/injection, vehicle: Klucel (hydroxypropylcellulose) (HPC)) 99 % of control; (dose: 5.0 mg/kg/injection, vehicle: Klucel (hydroxypropylcellulose) (HPC)) 100 % of control; (dose: 10.0 mg/kg/injection, vehicle: Klucel (hydroxypropylcellulose) (HPC)) 98 % of control; (dose: 20.0 mg/kg/injection, vehicle: Klucel (hydroxypropylcellulose) (HPC)) 96 % of control.

Turning to `CN=S(=O)(OCCCCCOS(=O)(=NC)c1ccccc1)c1ccccc1` (centres undefined), the T/C is, setting by setting: under setting [17], 101 % of control; under setting [13], 105 % of control; under setting [14], 118 % of control; under setting [4], 108 % of control; under setting [5], 122 % of control.

`Cn1cnc([N+](=O)[O-])c1Sc1nc(N)nc2c1ncn2C1OC(CO)C(O)C1O` (centres undefined): the T/C runs as follows: (dose: 1.56 mg/kg/injection, vehicle: suspension in saline) 105 % of control; under setting [15], 100 % of control; under setting [16], 105 % of control.

On to `CC(=O)Nc1ccc(Nc2ccc(C(=C3C=CC(=[N+](C)CCC#N)C=C3)c3ccc(N(C)CCC#N)cc3)cc2)cc1`, for which the T/C was 102 % of control (dose: 0.39 mg/kg/injection, vehicle: saline with Tween-80); 102 % of control under setting [18]; 98 % of control under setting [19]; 104 % of control under setting [17]; 97 % of control under setting [13]; 105 % of control under setting [14].

For `Cc1cc(O)c2c(c1O)C(=O)C13C(=C2O)C(=O)C2C(O)C1C1C(O)C3C(=O)C3=C(O)c4c(O)cc(C)c(O)c4C(=O)C321` (centres undefined), the T/C runs as follows: under setting [18], 100 % of control; under setting [19], 91 % of control; under setting [17], 90 % of control.

For the compound `Nc1ccc2c(c1)CN1C(=O)c3ccccc3C1=N2`, the T/C is, setting by setting: under setting [4], 117 % of control; under setting [5], 116 % of control.
